Measurements as given in paper PMC12693701, “Glucosinolate-Derived Metabolites from Barbarea vulgaris (Brassicaceae): Evaluation of Antimicrobial, Antioxidant, and Anti-Inflammatory Potentials” (Molecules, 2025).
In brackets after ≈: the same amount, converted by molar mass. Like-named read-outs stand apart in the source and are kept apart here.

Legend:
C. albicans ATCC 10231 = assay: Microdilution MIC/MMC with resazurin; format: cell-based, Candida albicans; conditions: for MIC: Candida albicans, ATCC10231
Experimental: (§1) The antimicrobial activity was evaluated against 15 microorganisms. This included 11 bacterial strains: four standard strains (Staphylococcus aureus ATCC 25923, Bacillus subtilis ATCC 6633, Bacillus pumilus NCTC 8241, and Escherichia coli ATCC 25922) and six clinical or environmental isolates (Staphylococcus aureus, Escherichia coli, Bacillus cereus, Proteus mirabilis, Salmonella enterica, and Klebsiella pneumoniae). One probiotic strain, Bifidobacterium animalis subsp. lactis was tested. In addition, four fungal strains, Candida albicans ATCC 10231, Trichoderma viride ATCC 13233, Aspergillus flavus ATCC 9170, and Fusarium solani ATCC 11712 were tested. The bacterial strains were kept in glycerol stock at −80 °C and the fungal strains in paraffin oil stock at 4 °C.
(§2) Bacterial and yeast suspensions were prepared using the direct colony method, as previously described by Andrews. The turbidity of the initial suspensions was adjusted to match the 0.5 McFarland standard using a densitometer (Biosan, Riga, Latvia), corresponding to approximately 10^8 colony-forming units (CFU)/mL for bacterial cells and 10^6 CFU/mL for yeast cells. Subsequently, 1:100 dilutions of the initial suspensions were prepared in sterile 0.85% saline. Fungal spore suspensions were obtained by gently harvesting spores from agar slopes containing mature mycelial growth. The collected spore suspensions were then diluted 1:1000 in sterile 0.85% saline prior to use.
(§3) Antimicrobial activity was evaluated by determining the minimum inhibitory concentration (MIC) and minimum microbicidal concentration (MMC) using the microdilution plate method with resazurin as an indicator [28]. In the 96-well plates, 100 μL of Mueller–Hinton broth (Torlak, Belgrade, Serbia) for bacterial testing and Sabouraud broth (Torlak, Belgrade, Serbia) for fungal testing were dispensed into each well. The compounds under investigation were initially dissolved in a 10% dimethyl sulfoxide (DMSO) solution, followed by dilution in sterile distilled water, resulting in a working compound solution containing 1% DMSO. A 100 μL aliquot of the stock solution of the tested compound was added to the first row, and twofold serial dilutions were then carried out using a multichannel pipette. The resulting concentration range was from 5 to 0.039 mg/mL. The inoculated microtiter plates were incubated at 37 °C for 24 h for bacteria, at 28 °C for 48 h for yeasts, and at 28 °C for 72 h for molds.
(§4) Each test also included growth control and sterility control. All tests were conducted in duplicate. MIC was defined as the lowest concentration of tested compounds that prevented resazurin color change from blue to pink. For molds, MIC values of the tested compound were determined as the lowest concentration that inhibited visible mycelia growth. MMC was determined by inoculation of the nutrient agar medium by plating […] of samples from wells, where no indicator color change was recorded. At the end of the incubation period, the lowest concentration with no growth (no colony) was defined as MMC.
(§5) Doxycycline, ampicillin and amphotericin B (- Sigma-Aldrich, St. Louis, MO, USA) and ketoconazole (Hemofarm A.D., Vršac, Serbia) were dissolved in a nutrient liquid medium. Doxycycline is a broad-spectrum antibiotic effective against both aerobic and anaerobic Gram-positive and Gram-negative bacteria. Ampicillin, a beta-lactam antibiotic, primarily targets Gram-positive bacteria but also some Gram-negative strains. Amphotericin B is an antifungal drug often used for serious systemic fungal infections and is one of the effective treatments for fungal infections caused by Aspergillus sp. Ketoconazole is an antifungal agent used to inhibit the growth of Candida species.

S. enterica = assay: Microdilution MIC/MMC with resazurin; format: cell-based, Salmonella enterica; conditions: compounds 1–8; for MIC: Salmonella enterica
Experimental: as §1, §2, §3, §4, §5

A. flavus ATCC 9170 = assay: Microdilution MIC/MMC; format: cell-based, Aspergillus flavus
Experimental: as §1, §2, §3, §4, §5

P. mirabilis = assay: Microdilution MIC/MMC with resazurin; format: cell-based, Proteus mirabilis; conditions: for MIC: Proteus mirabilis
Experimental: as §1, §2, §3, §4, §5

[1] = DPPH radical scavenging assay; conditions: mean ± SD
Experimental: The DPPH assay was used to assess the ability of the tested compounds to scavenge reactive radical species. Stock solutions of the investigated compounds were prepared in DMSO and then diluted with methanol to a final volume of 1000 µL. An equal volume of a 50 µM DPPH solution in methanol was then added to the prepared mixture. The final concentrations of the test compounds were 25, 50, and 100 µM. After thorough mixing, the samples were incubated in the dark at room temperature for 20 to 60 min. Methanol was used as a blank, and absorbance was measured at 517 nm after incubation. All measurements were performed in triplicate.

[2] = C. albicans ATCC 10231, compounds 1–8
[3] = C. albicans ATCC 10231, compounds 1–8, read-out: MIC
[4] = A. flavus ATCC 9170, compounds 1–8
[5] = Aspergillus flavus, ATCC9170, A. flavus ATCC 9170, compounds 1–8, read-out: MIC
[6] = P. mirabilis, compounds 1–8, read-out: MIC

SMILES	MMC (C. albicans ATCC 10231; [2]) [mg/mL]	MIC (C. albicans ATCC 10231; [3]) [mg/L]	MIC (S. enterica) [mg/L]	MMC (S. enterica) [mg/mL]	MMC (A. flavus ATCC 9170; [4]) [mg/mL]	MIC (A. flavus ATCC 9170; [5]) [mg/L]	MMC (P. mirabilis; P. mirabilis, compounds 1–8) [mg/mL]	MIC (P. mirabilis; [6]) [mg/L]	DPPH Scavenging Ability ([1]; 25 µM, 20 min) [%]	DPPH Scavenging Ability ([1]; 25 µM, 60 min) [%]	DPPH Scavenging Ability ([1]; 50 µM, 20 min) [%]	DPPH Scavenging Ability ([1]; 50 µM, 60 min) [%]	DPPH Scavenging Ability ([1]; 100 µM, 20 min) [%]	DPPH Scavenging Ability ([1]; 100 µM, 60 min) [%]	MIC (C. albicans ATCC 10231) [mg/L]	MIC (A. flavus ATCC 9170; [4]) [mg/L]	MIC (A. flavus ATCC 9170; Aspergillus flavus, ATCC9170) [mg/L]	MIC (P. mirabilis) [mg/L]
CSC(=S)NCCc1ccccc1 [Compound 1, Methyl phenethylcarbamodithioate]	>5	1250 (≈ 5.91 mM)	5000 (≈ 23.7 mM)	5	2.5	1250 (≈ 5.91 mM)	5	5000 (≈ 23.7 mM)	1.6 ± 1.2	1.8 ± 1.5	2.5 ± 1.1	2.4 ± 1.4	2.6 ± 1.2	2.9 ± 1.7	–	–	–	–
S=C1NCC(c2ccccc2)O1 (racemic) [Compound 4, rac-5-Phenyl-1,3-oxazolidine-2-thione]	5	5000 (≈ 27.9 mM)	2500 (≈ 13.9 mM)	5	>5	> 5000	5	2500 (≈ 13.9 mM)	1.2 ± 0.7	1.3 ± 0.5	1.7 ± 0.8	2.0 ± 0.9	3.8 ± 1.2	3.5 ± 1.7	–	–	–	–
Oc1ccc(CCN=C=S)cc1 [Compound 8, 2-(4-hydroxyphenyl)ethyl isothiocyanate]	2.5	–	312 (≈ 1.74 mM)	1.25	<0.039	–	0.625	–	4.4 ± 1.0	4.7 ± 1.2	7.3 ± 1.3	8.1 ± 1.3	13.1 ± 0.7	14.2 ± 0.9	2500 (≈ 13.9 mM)	<39	< 39	156 (≈ 0.87 mM)
S=C1NC[C@H](c2ccccc2)O1 [Compound 5, (S)-5-phenyl-1,3-oxazolidine-2-thione]	>5	5000 (≈ 27.9 mM)	5000 (≈ 27.9 mM)	>5	>5	> 5000	5	5000 (≈ 27.9 mM)	7.0 ± 0.9	8.4 ± 0.5	14.8 ± 0.7	16.4 ± 0.4	21.6 ± 1.2	22.4 ± 0.7	–	–	–	–
O=C1NCC(c2ccccc2)O1 (stereo not shown) [Compound 7, 5-Phenyl-1,3-oxazolidin-2-one]	5	2500 (≈ 15.3 mM)	1250 (≈ 7.66 mM)	2.5	2.5	2500 (≈ 15.3 mM)	2.5	2500 (≈ 15.3 mM)	1.1 ± 0.4	0.9 ± 0.7	1.5 ± 0.9	1.5 ± 0.8	2.6 ± 1.0	2.7 ± 1.5	–	–	–	–
O=C1NCC(c2ccccc2)S1 (stereo not shown) [Compound 6, 5-phenyl-1,3-thiazolidin-2-one]	>5	> 5000	> 5000	>5	>5	> 5000	>5	> 5000	3.1 ± 0.6	3.0 ± 0.7	4.2 ± 0.8	4.6 ± 0.6	5.9 ± 0.9	5.8 ± 1.4	–	–	–	–
CSC(=S)NCCc1ccc(O)cc1 [Compound 2, methyl-4-hydroxyphenylethyl dithiocarbamate]	>5	2500 (≈ 11 mM)	625 (≈ 2.75 mM)	–	0.625	312 (≈ 1.37 mM)	0.312	156 (≈ 0.686 mM)	11.9 ± 0.7	12.0 ± 0.4	15.6 ± 0.3	15.7 ± 1.4	24.9 ± 1.1	25.2 ± 1.6	–	–	–	–
O=C(O)C1CSC(=S)N1 (stereo not shown) [Compound 3, 2-Thioxothiazolidine-4-carboxylic Acid]	1.25	312 (≈ 1.91 mM)	2500 (≈ 15.3 mM)	2.5	5	5000 (≈ 30.6 mM)	2.5	2500 (≈ 15.3 mM)	1.0 ± 0.3	1.1 ± 0.5	1.9 ± 0.8	2.1 ± 1.1	7.8 ± 1.8	7.9 ± 1.7	–	–	–	–
